From patent US10987363B2, “Fluticasone furoate in the treatment of COPD” (GLAXOSMITHKLINE INTELLECTUAL PROPERTY DEVELOPMENT LIMITED, priority 2014, dated 2021)

Assays:
COPD patients [1] = assay: Re-analysis of ISOLDE 3-year clinical study: rate of decline of FEV1 by baseline blood eosinophil count; format: in vivo, human; conditions: 500 mcg twice daily
Description: Methods: The results of ISOLDE (Burge P S et al BMJ 2000; 320:1297-303), a 3-year study of the effects of fluticasone propionate (FP) 500 mcg twice daily on rate of decline of FEV1 in well-characterised COPD patients were re-analysed by baseline blood eosinophil count (≥2%, <2%).

COPD patients [2] = conditions: pre-specified analysis of ISOLDE, all patients; 500 mcg twice daily, 3 years; cited from earlier work

Compound: CCC(=O)O[C@]1(C(=O)SCF)[C@H](C)C[C@H]2[C@@H]3C[C@H](F)C4=CC(=O)C=C[C@]4(C)[C@@]3(F)[C@@H](O)C[C@@]21C [FP, fluticasone propionate]
- difference in rate of decline of FEV1 vs. placebo (COPD patients [1]; patients with eosinophil count <2%, 3 years): no difference
- slowing of the rate of decline of lung function compared with placebo (COPD patients [1]; patients with eosinophil count ≥2%, p=0.001): 38 mL per year
- effect on the rate of decline of FEV1 vs. placebo (COPD patients [2]): no effect
